Data on one cell line can be found in the supplement of paper PMC10307832.

Experiment in all cases: relative viability (nuclei count vs DMSO), 5 days (fraction); higher = more cells survive
Compound in experiment [1]: C1CC(C1)(C(=O)O)C(=O)O.[NH2-].[NH2-].[Pt+2] [Carboplatin] + CC(=O)c1c(C)c2cnc(Nc3ccc(N4CCNCC4)cn3)nc2n(C2CCCC2)c1=O [Palbociclib] (partner 0.5 µM)
In a few lines: (§1)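 The day after seeding in 1536-well plates, lung cancer cell lines were treated by pin tool with a single drug, or with a fixed anchor-drug dose together with five library-drug doses (not always all listed) in √10 steps. After 5 days, a combined fix-and-stain solution (final 0.05% Triton X-100, 1% formaldehyde, 1 ug/ml Hoechst) was added. Nuclei counted on 4× images gave relative viability as treated counts over vehicle counts, reported as the median of duplicate plates.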

Compound in the experiment “Carboplatin + Bortezomib”: C1CC(C1)(C(=O)O)C(=O)O.[NH2-].[NH2-].[Pt+2] [Carboplatin] + CC(C)C[C@H](NC(=O)[C@H](Cc1ccccc1)NC(=O)c1cnccn1)B(O)O [Bortezomib] (partner 0.002 µM)
In a few lines:
as §1

Compound in the experiment “Carboplatin + Decitabine”: C1CC(C1)(C(=O)O)C(=O)O.[NH2-].[NH2-].[Pt+2] [Carboplatin] + Nc1ncn([C@H]2C[C@H](O)[C@@H](CO)O2)c(=O)n1 [Decitabine] (partner 2 µM)
Put shortly:
as §1

Compound in the experiment “GSK126 + OSI-027”: CC[C@H](C)N1C=C(C2=C(C=C(C=C21)C3=CN=C(C=C3)N4CCNCC4)C(=O)NCC5=C(C=C(NC5=O)C)C)C [GSK126] + COc1cccc2cc(-c3nc([C@H]4CC[C@H](C(=O)O)CC4)n4ncnc(N)c34)[nH]c12 [OSI-027] (partner 0.5 µM)
Put shortly: as §1

For the cell line UMC-11, the relative viability in experiment [1] (first compound 0.08 µM) amounted to 0.314; in experiment [1] (first compound 0.253 µM), 0.348; in experiment [1] (first compound 0.8 µM) it was 0.275; in experiment [1] (first compound 2.53 µM) it was 0.301; in experiment [1] (first compound 8 µM), 0.339; with Carboplatin + Bortezomib (first compound 0.08 µM) it was 0.941. For the same cell line, the relative viability is 0.904 in the experiment with Carboplatin + Bortezomib (first compound 0.253 µM); 0.675 with Carboplatin + Bortezomib (first compound 0.8 µM); 0.622 with Carboplatin + Bortezomib (first compound 2.53 µM); 0.382 with Carboplatin + Bortezomib (first compound 8 µM); 0.596 in the experiment with Carboplatin + Decitabine (first compound 0.08 µM); 0.626 with Carboplatin + Decitabine (first compound 0.253 µM). Besides, the relative viability with Carboplatin + Decitabine (first compound 0.8 µM) was determined as 0.482; in the experiment with Carboplatin + Decitabine (first compound 2.53 µM) it was 0.576; in the experiment with Carboplatin + Decitabine (first compound 8 µM), 0.418; with GSK126 + OSI-027 (first compound 0.08 µM) it was 0.563; in the experiment with GSK126 + OSI-027 (first compound 0.253 µM), 0.522; in the experiment with GSK126 + OSI-027 (first compound 0.8 µM) it was 0.484. Moreover, the relative viability with GSK126 + OSI-027 (first compound 2.53 µM) turned out to be 0.44; with GSK126 + OSI-027 (first compound 8 µM) it was 0.43.
